These results are taken from ChEMBL document CHEMBL3272010, “Antimycotic imidazoles. 3. Synthesis and antimycotic properties of 1-[2-(aryloxyalkyl)-2-phenylethyl]-1H-imidazoles” (1977).

Active and inactive are the calls of the source. The rule behind the calls is not given here.

Assay [1] has as its system Staphylococcus haemolyticus. Briefly: Antibaterial activity against Staphylococcus haemolyticus assessed as lowest dose required to total inhibition of bacterial growth. It counts as functional.
The next assay has as its system Aspergillus fumigatus. Nature of the assay: Antifungal activity against Aspergillus fumigatus assessed as lowest dose required to total inhibition of fungal growth. The class given is functional.
The subject of a further assay is Mucor. Nature of the assay: Antifungal activity against Mucor species assessed as lowest dose required to total inhibition of fungal growth. It counts as functional.
For another assay, the system named is Saprolegnia. Briefly: Antifungal activity against Saprolegnia species assessed as lowest dose required to total inhibition of fungal growth. It counts as functional.
The next assay relates to Trichophyton rubrum. Briefly: Antifungal activity against Trichophyton rubrum assessed as lowest dose required to total inhibition of fungal growth. The class given is functional.
Another assay has as its system Phialophora verrucosa. Nature of the assay: Antifungal activity against Phialophora verrucosa assessed as lowest dose required to total inhibition of fungal growth. The class given is functional.
For assay [2], the system named is Trichophyton mentagrophytes. Briefly: Antifungal activity against Trichophyton mentagrophytes assessed as lowest dose required to total inhibition of fungal growth. It counts as functional.
The test system of assay [3] is Erysipelothrix rhusiopathiae. Briefly: Antibaterial activity against Erysipelothrix insidiosa assessed as lowest dose required to total inhibition of bacterial growth. It counts as functional.
A further assay relates to Sporothrix schenckii. Nature of the assay: Antifungal activity against Sporothrix schenckii assessed as lowest dose required to total inhibition of fungal growth. It counts as functional.
For another assay, the system named is Microsporum canis. Nature of the assay: Antifungal activity against Microsporum canis assessed as lowest dose required to total inhibition of fungal growth. The class given is functional.
Assay [4] deals with Candida albicans. Nature of the assay: Antifungal activity against Candida albicans infected in guinea pig at 10 mg/kg, po qd. The arrangement: dose 10 mg/kg. It counts as functional, organism-based.
The next assay has as its system Streptococcus pyogenes. Nature of the assay: Antibaterial activity against Streptococcus pyogenes assessed as lowest dose required to total inhibition of bacterial growth. It counts as functional.
The next assay relates to Candida tropicalis. Nature of the assay: Antifungal activity against Candida tropicalis assessed as lowest dose required to total inhibition of fungal growth. The class given is functional.
In assay [5] the test system is Candida albicans. Briefly: Antifungal activity against Candida albicans assessed as lowest dose required to total inhibition of fungal growth. It counts as functional.
The test system of a further assay is Cryptococcus neoformans. Nature of the assay: Antifungal activity against Cryptococcus neoformans assessed as lowest dose required to total inhibition of fungal growth. It counts as functional.

For the molecule `Clc1ccc(C(CCOc2ccccc2)Cn2ccnc2)c(Cl)c1.O=C(O)C(=O)O` (stereo not given), the GI in assay [1] is 10 µg/mL; in the assay with Aspergillus fumigatus it was 100 µg/mL; with Mucor, 100 µg/mL; in the assay with Saprolegnia it was 100 µg/mL; with Trichophyton rubrum it was under 1 µg/mL; in the assay on Phialophora verrucosa it was 100 µg/mL. The GI was under 1 µg/mL in assay [2]; 1 µg/mL in assay [3]; 10 µg/mL in the assay with Sporothrix schenckii; 10 µg/mL in the assay with Microsporum canis; 1 µg/mL with Streptococcus pyogenes; 100 µg/mL with Candida tropicalis. The GI in the assay on Candida albicans [5] was 10 µg/mL; with Cryptococcus neoformans, under 1 µg/mL. Moreover, the result in the assay with Candida albicans [4] was inactive.
With `Clc1ccc(OCCC(Cn2ccnc2)c2ccc(Cl)cc2Cl)c(Cl)c1.O=C(O)C(=O)O` (stereo not given), the GI in [1] was 1 µg/mL; in the assay with Aspergillus fumigatus, 100 µg/mL; with Mucor, 100 µg/mL; in the assay on Saprolegnia it was 100 µg/mL; in the assay on Trichophyton rubrum, under 1 µg/mL; in the assay with Phialophora verrucosa it was 100 µg/mL. Moreover, the GI in assay [2] is under 1 µg/mL; in assay [3], under 1 µg/mL; with Sporothrix schenckii, 100 µg/mL; with Microsporum canis, 10 µg/mL; with Streptococcus pyogenes it was under 1 µg/mL; in the assay with Candida tropicalis it was over 100 µg/mL. Moreover, the GI is 100 µg/mL in the assay with Candida albicans [5] and under 1 µg/mL in the assay with Cryptococcus neoformans. For the same molecule, in the assay with Candida albicans [4], the outcome was Active.
Take `Clc1ccc(C(CCOc2ccccc2Cl)Cn2ccnc2)c(Cl)c1.O=C(O)C(=O)O` (stereo not given): the GI in [1] was 1 µg/mL; in the assay with Aspergillus fumigatus it was over 100 µg/mL; with Mucor, over 100 µg/mL; in the assay with Saprolegnia, 100 µg/mL; in the assay with Trichophyton rubrum, under 1 µg/mL; in the assay with Phialophora verrucosa, 100 µg/mL. Also, the GI in assay [2] is under 1 µg/mL; in [3] it was under 1 µg/mL; in the assay on Sporothrix schenckii, 10 µg/mL; in the assay on Microsporum canis, 10 µg/mL; with Streptococcus pyogenes it was under 1 µg/mL; in the assay on Candida tropicalis, over 100 µg/mL. Also, the GI in the assay on Candida albicans [5] was over 100 µg/mL; in the assay on Cryptococcus neoformans, under 1 µg/mL. For the same molecule, the outcome with Candida albicans [4] was inactive.
Consider `Fc1ccc(OCCC(Cn2ccnc2)c2ccc(Cl)cc2Cl)cc1.O=C(O)C(=O)O` (stereo not given), for which the GI in assay [1] was 10 µg/mL; with Aspergillus fumigatus, 100 µg/mL; with Mucor, 100 µg/mL; in the assay on Saprolegnia, 10 µg/mL; in the assay on Trichophyton rubrum it was under 1 µg/mL; in the assay on Phialophora verrucosa, 100 µg/mL. In addition, the GI is under 1 µg/mL in [2]; under 1 µg/mL in assay [3]; 10 µg/mL in the assay with Sporothrix schenckii; 10 µg/mL with Microsporum canis; 1 µg/mL in the assay with Streptococcus pyogenes; over 100 µg/mL with Candida tropicalis. For the same molecule, the figures for the GI with Candida albicans [5] and with Cryptococcus neoformans were 10 µg/mL and under 1 µg/mL, respectively. Besides, the outcome in the assay with Candida albicans [4] was Active.
As for `Clc1ccc(C(CCCOc2ccc(Br)cc2)Cn2ccnc2)c(Cl)c1.O=C(O)C(=O)O` (stereo not given), the GI in assay [1] is 10 µg/mL; in the assay on Aspergillus fumigatus, over 100 µg/mL; in the assay with Mucor it was over 100 µg/mL; with Saprolegnia it was 100 µg/mL; in the assay with Trichophyton rubrum, 10 µg/mL; in the assay with Phialophora verrucosa, 100 µg/mL. In addition, the GI in assay [2] was under 1 µg/mL; in [3] it was under 1 µg/mL; with Sporothrix schenckii it was 100 µg/mL; with Microsporum canis, 100 µg/mL; with Streptococcus pyogenes, under 1 µg/mL; in the assay on Candida tropicalis it was over 100 µg/mL. The results for the GI in the assay on Candida albicans [5] and in the assay with Cryptococcus neoformans were over 100 µg/mL and 10 µg/mL, respectively. Also, the result in the assay on Candida albicans [4] was inactive.
